In US11667649B2, “Heteroaromatic macrocyclic ether chemotherapeutic agents” (Nuvalent, Inc., priority 2020, dated 2023):

Test system: TPM3-NTRK1-wt IC50 / primary target (e.g. CD74-ROS1-wt) IC50, Ba/F3 cells
Assay: Cell assay TRKA selectivity (TRKA potency divided by primary target potency)
Assay type: cell-based
Settings: for TPM3-NTRK1-wt/CD74-ROS1-G2032R: TRKA selectivity ratio: TPM3-NTRK1-wt IC50 / CD74-ROS1-G2032R IC50, Ba/F3 cells; for TPM3-NTRK1-wt/CD74-ROS1-wt: TRKA selectivity ratio: TPM3-NTRK1-wt IC50 / CD74-ROS1-wt IC50, Ba/F3 cells; for TPM3-NTRK1-wt/EML4-ALK-L1196M-G1202R: TRKA selectivity ratio: TPM3-NTRK1-wt IC50 / EML4-ALK-L1196M-G1202R IC50, Ba/F3 cells; for TPM3-NTRK1-wt/EML4-ALK-wt: TRKA selectivity ratio: TPM3-NTRK1-wt IC50 / EML4-ALK-wt IC50, Ba/F3 cells
Procedure, shortened: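 Ratio of TRKA to primary-target cellular IC50 (e.g. TPM3-NTRK1-wt/CD74-ROS1-wt), grouped into bins A >30, B >10, C ≥1, D <1. Each IC50 came from engineered Ba/F3 fusion lines grown without IL-3, dosed for 72 h and read as CellTiter-Glo luminescence, with a four-parameter logistic fit.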

| Structure (SMILES) | TPM3-NTRK1-wt/CD74-ROS1-G2032R | TPM3-NTRK1-wt/CD74-ROS1-wt | TPM3-NTRK1-wt/EML4-ALK-L1196M-G1202R | TPM3-NTRK1-wt/EML4-ALK-wt |
| --- | --- | --- | --- | --- |
| C[C@H]1Oc2cc(cnc2N)-c2c(CC(F)F)nn(C)c2Cc2cn(C)nc2-c2ccc(F)cc21 [Example 172, (19R)-3-(2,2-difluoroethyl)-16-fluoro-5,10,19-trimethyl-20-oxa-4,5,10,11,23-pentaazapentacyclo[19.3.1.0^2,^6.0^8,^12.0^13,^18]pentacosa-1(24),2(6),3,8,11,13,15,17,21(25),22-decaen-22-amine] | A (bin A for very high selectivity, ratio>30-fold) | A (bin A for very high selectivity, ratio>30-fold) | A (bin A for very high selectivity, ratio>30-fold) | A (bin A for very high selectivity, ratio>30-fold) |
| CCn1ncc2c1-c1cnc(N)c(c1)O[C@H](C)c1cc(F)ccc1-c1ncc(OC)cc1C2 [Example 149, (20R)-3-ethyl-17-fluoro-10-methoxy-20-methyl-21-oxa-3,4,12,24-tetraazapentacyclo[20.3.1.0^2,^6.0^8,^13.0^14,^19]hexacosa-1(25),2(6),4,8(13),9,11,14,16,18,22(26),23-undecaen-23-amine] | B (bin B for high selectivity, ratio>10-fold) | A (bin A for very high selectivity, ratio>30-fold) | D (bin D for low selectivity, ratio<1) | B (bin B for high selectivity, ratio>10-fold) |
| C[C@H]1Oc2cc(cnc2N)-c2c(C(F)F)cnn2Cc2cc(F)cnc2-c2ccc(F)cc21 [Example 17, (20R)-3-(difluoromethyl)-10,17-difluoro-20-methyl-21-oxa-5,6,12,24-tetraazapentacyclo[20.3.1.0^2,^6.0^8,^13.0^14,^19]hexacosa-1(25),2,4,8(13),9,11,14,16,18,22(26),23-undecaen-23-amine] | B (bin B for high selectivity, ratio>10-fold) | A (bin A for very high selectivity, ratio>30-fold) | D (bin D for low selectivity, ratio<1) | B (bin B for high selectivity, ratio>10-fold) |
| CCn1nc2c(c1C#N)-c1cnc(N)c(c1)O[C@H](C)c1cc(F)ccc1-n1nccc1C2 [Example 119, (19R)-22-amino-4-ethyl-16-fluoro-19-methyl-20-oxa-4,5,11,12,23-pentaazapentacyclo[19.3.1.0^2,^6.0^8,^12.0^13,^18]pentacosa-1(24),2,5,8,10,13,15,17,21(25),22-decaene-3-carbonitrile] | D (bin D for low selectivity, ratio<1) | A (bin A for very high selectivity, ratio>30-fold) | D (bin D for low selectivity, ratio<1) | A (bin A for very high selectivity, ratio>30-fold) |
| C[C@H]1Oc2cc(cnc2N)-c2c(nn(C)c2C2CCC2)Cc2ccnn2-c2ccc(F)cc21 [Example 174, (19R)-3-cyclobutyl-16-fluoro-4,19-dimethyl-20-oxa-4,5,11,12,23-pentaazapentacyclo[19.3.1.0^2,^6.0^8,^12.0^13,^18]pentacosa-1(24),2,5,8,10,13,15,17,21(25),22-decaen-22-amine] | B (bin B for high selectivity, ratio>10-fold) | A (bin A for very high selectivity, ratio>30-fold) | C (bin C for moderate selectivity, ratio≥1) | A (bin A for very high selectivity, ratio>30-fold) |
| Cc1cc2n(n1)-c1ccc(F)cc1[C@@H](C)Oc1cc(cnc1N)-c1c(C#N)nn(C)c1C2 [Example 97, (19R)-22-amino-16-fluoro-5,10,19-trimethyl-20-oxa-4,5,11,12,23-pentaazapentacyclo[19.3.1.0^2,^6.0^8,^12.0^13,^18]pentacosa-1(24),2(6),3,8,10,13,15,17,21(25),22-decaene-3-carbonitrile] | A (bin A for very high selectivity, ratio>30-fold) | A (bin A for very high selectivity, ratio>30-fold) | B (bin B for high selectivity, ratio>10-fold) | A (bin A for very high selectivity, ratio>30-fold) |
| C[C@H]1Oc2cc(cnc2N)-c2c(cnn2C2COC2)Cc2cn(C)nc2-c2ccc(F)cc21 [Example 139, (19R)-16-fluoro-10,19-dimethyl-3-(oxetan-3-yl)-20-oxa-3,4,10,11,23-pentaazapentacyclo[19.3.1.0^2,^6.0^8,^12.0^13,^18]pentacosa-1(24),2(6),4,8,11,13,15,17,21(25),22-decaen-22-amine] | A (bin A for very high selectivity, ratio>30-fold) | A (bin A for very high selectivity, ratio>30-fold) | C (bin C for moderate selectivity, ratio≥1) | A (bin A for very high selectivity, ratio>30-fold) |
| CCc1nn(CC)c2c1Cc1cn(C)nc1-c1ccc(F)cc1[C@@H](C)Oc1cc-2cnc1N [Example 158, (19R)-3,5-diethyl-16-fluoro-10,19-dimethyl-20-oxa-3,4,10,11,23-pentaazapentacyclo[19.3.1.0^2,^6.0^8,^12.0^13,^18]pentacosa-1(24),2(6),4,8,11,13,15,17,21(25),22-decaen-22-amine] | A (bin A for very high selectivity, ratio>30-fold) | A (bin A for very high selectivity, ratio>30-fold) | C (bin C for moderate selectivity, ratio≥1) | A (bin A for very high selectivity, ratio>30-fold) |
| Cc1cc2n(n1)-c1ccc(F)cc1[C@@H](C)Oc1cc(cnc1N)-c1c(c(C)nn1CC1CC1)C2 [Example 141, (19R)-3-(cyclopropylmethyl)-16-fluoro-5,10,19-trimethyl-20-oxa-3,4,11,12,23-pentaazapentacyclo[19.3.1.0^2,^6.0^8,^12.0^13,^18]pentacosa-1(24),2(6),4,8,10,13,15,17,21(25),22-decaen-22-amine] | A (bin A for very high selectivity, ratio>30-fold) | A (bin A for very high selectivity, ratio>30-fold) | A (bin A for very high selectivity, ratio>30-fold) | A (bin A for very high selectivity, ratio>30-fold) |
| C[C@H]1Oc2cc(cnc2N)-c2c(nnn2CC2CC2)Cc2cc(C(F)(F)F)nn2-c2ccc(F)cc21 [Example 128, (19R)-3-(cyclopropylmethyl)-16-fluoro-19-methyl-10-(trifluoromethyl)-20-oxa-3,4,5,11,12,23-hexaazapentacyclo[19.3.1.0^2,^6.0^8,^12.0^13,^18]pentacosa-1(24),2(6),4,8,10,13,15,17,21(25),22-decaen-22-amine] | A (bin A for very high selectivity, ratio>30-fold) | A (bin A for very high selectivity, ratio>30-fold) | C (bin C for moderate selectivity, ratio≥1) | B (bin B for high selectivity, ratio>10-fold) |
| CCn1nnc2c1-c1cnc(N)c(c1)O[C@H](C)c1cc(F)ccc1-c1nscc1C2 [Example 95, (19R)-3-ethyl-16-fluoro-19-methyl-20-oxa-10-thia-3,4,5,11,23-pentaazapentacyclo[19.3.1.0^2,^6.0^8,^12.0^13,^18]pentacosa-1(24),2(6),4,8,11,13,15,17,21(25),22-decaen-22-amine] | A (bin A for very high selectivity, ratio>30-fold) | A (bin A for very high selectivity, ratio>30-fold) | C (bin C for moderate selectivity, ratio≥1) | A (bin A for very high selectivity, ratio>30-fold) |
| CCn1nc(OC)c2c1-c1cnc(N)c(c1)O[C@H](C)c1cc(F)ccc1-c1nn(C)cc1C2 [Example 181, (19R)-3-ethyl-16-fluoro-5-methoxy-10,19-dimethyl-20-oxa-3,4,10,11,23-pentaazapentacyclo[19.3.1.0^2,^6.0^8,^12.0^13,^18]pentacosa-1(24),2(6),4,8,11,13,15,17,21(25),22-decaen-22-amine] | A (bin A for very high selectivity, ratio>30-fold) | A (bin A for very high selectivity, ratio>30-fold) | C (bin C for moderate selectivity, ratio≥1) | A (bin A for very high selectivity, ratio>30-fold) |
| CCn1ncc2c1-c1cnc(N)c(c1)O[C@H](C)c1cc(F)ccc1-n1nc(F)cc1C2 [Example 71, (19R)-3-ethyl-10,16-difluoro-19-methyl-20-oxa-3,4,11,12,23-pentaazapentacyclo[19.3.1.0^2,^6.0^8,^12.0^13,^18]pentacosa-1(24),2(6),4,8,10,13,15,17,21(25),22-decaen-22-amine] | A (bin A for very high selectivity, ratio>30-fold) | B (bin B for high selectivity, ratio>10-fold) | C (bin C for moderate selectivity, ratio≥1) | B (bin B for high selectivity, ratio>10-fold) |
| CCn1ncc2c1-c1cnc(N)c(c1)OC(C)c1cc(F)ccc1-n1cncc1C2 (centres unmarked) [Example 38, 3-ethyl-16-fluoro-19-methyl-20-oxa-3,4,10,12,23-pentaazapentacyclo[19.3.1.0^2,^6.0^8,^12.0^13,^18]pentacosa-1(24),2(6),4,8,10,13,15,17,21(25),22-decaen-22-amine] | A (bin A for very high selectivity, ratio>30-fold) | A (bin A for very high selectivity, ratio>30-fold) | C (bin C for moderate selectivity, ratio≥1) | B (bin B for high selectivity, ratio>10-fold) |
